In patent EP1947089A1, “A-polymorph of a substituted pyrazoline, its preparation and use as medicaments” (Laboratorios del Dr. Esteve S.A., priority 2007, dated 2008):

Assays:
[1] = Behaviour of the solid form under pressure stress; format: physicochemical; conditions: 98 kN (98.07 kN), 13 mm diameter samples, 1, 5 and 30 minutes
Description: Samples of the a-Polymorph were submitted to pressure stress for various periods of time (1, 5 and 30 minutes) to investigate the effect of pressure on the solid form. The pressure (98kN) used was chosen to correspond to correspond to the pressure at which planar tablets, of a diameter between 10 and 15 mm, are made. […] Precisely, 13 mm diameter samples of the polymorph were submitted to 98.07 kN of pressure using a Specac press for 1, 5 and 30 minutes and analysed, with no difference.

[2] = Thermogravimetric (TG) analysis; format: physicochemical; conditions: 10°C/min between 30 and 600°C, under nitrogen; no weight loss at lower temperatures
Description: Thermogravimetric analyses (TGA) were recorded in a Mettler Toldo SDTA851 e. Samples of approximately 2 mg were weighted into open 40 µlalumina crucibles, and heated at 10°C/min between 30 and 600°C, under nitrogen (80 ml/min).

[3] = molecular target: Herg channel (Homo sapiens, UniProt Q12809); assay: Herg channel affinity; format: binding; conditions: general statement, no value given; low risk of QT prolongation expected
Chain of Herg channel (Q12809 whole entry): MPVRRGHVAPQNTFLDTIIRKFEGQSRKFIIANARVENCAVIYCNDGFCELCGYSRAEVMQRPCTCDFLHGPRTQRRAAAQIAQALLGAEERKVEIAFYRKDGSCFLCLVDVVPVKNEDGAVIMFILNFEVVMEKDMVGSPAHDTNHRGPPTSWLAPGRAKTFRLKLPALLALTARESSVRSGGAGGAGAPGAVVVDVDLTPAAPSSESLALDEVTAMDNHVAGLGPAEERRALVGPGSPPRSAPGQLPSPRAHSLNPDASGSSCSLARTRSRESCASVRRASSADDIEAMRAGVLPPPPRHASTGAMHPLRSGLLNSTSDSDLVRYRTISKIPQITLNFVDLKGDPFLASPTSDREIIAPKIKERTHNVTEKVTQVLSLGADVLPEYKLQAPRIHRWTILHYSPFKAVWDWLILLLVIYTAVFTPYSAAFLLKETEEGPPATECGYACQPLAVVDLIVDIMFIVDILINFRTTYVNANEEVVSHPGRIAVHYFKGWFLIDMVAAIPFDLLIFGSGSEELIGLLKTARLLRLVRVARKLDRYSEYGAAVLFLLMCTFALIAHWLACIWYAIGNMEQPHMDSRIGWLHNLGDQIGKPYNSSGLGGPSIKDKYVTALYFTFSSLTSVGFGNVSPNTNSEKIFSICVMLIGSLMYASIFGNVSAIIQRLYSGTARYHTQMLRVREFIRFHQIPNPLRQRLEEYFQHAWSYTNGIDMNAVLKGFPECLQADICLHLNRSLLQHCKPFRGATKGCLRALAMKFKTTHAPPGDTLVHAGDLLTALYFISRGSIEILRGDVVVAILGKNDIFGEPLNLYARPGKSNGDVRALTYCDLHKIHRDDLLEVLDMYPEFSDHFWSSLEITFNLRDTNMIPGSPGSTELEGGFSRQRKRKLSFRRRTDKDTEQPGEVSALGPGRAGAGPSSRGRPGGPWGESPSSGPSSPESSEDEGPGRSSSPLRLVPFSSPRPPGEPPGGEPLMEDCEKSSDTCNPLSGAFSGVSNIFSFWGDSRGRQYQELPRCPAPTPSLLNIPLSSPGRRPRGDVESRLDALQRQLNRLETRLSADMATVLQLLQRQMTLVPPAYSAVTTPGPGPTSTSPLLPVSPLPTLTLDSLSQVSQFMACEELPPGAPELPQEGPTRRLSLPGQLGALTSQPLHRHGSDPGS

effect of pressure on the solid form (phase change) [1] | temperature of weight loss due to decomposition (TG analysis) [2] | SMILES | Herg channel affinity [3]
did not induce any phase change | higher than 280 °C | O=C(NN1CCCCC1)C1=NN(c2ccc(Cl)cc2Cl)C(c2ccc(Cl)cc2)C1 (racemic) [α-Polymorph, α-Polymorph of N-piperidinyl-5-(4-chlorophenyl)-1-(2,4-dichlorophenyl)-4,5-dihydro-1H-pyrazole-3-carboxamide] | 
 |  | O=C(NN1CCCCC1)C1=NN(c2ccc(Cl)cc2Cl)C(c2ccc(Cl)cc2)C1 (racemic) [COMPOUND C, N-piperidinyl-5-(4-chlorophenyl)-1-(2,4-dichlorophenyl)-4,5-dihydro-1H-pyrazole-3-carboxamide] | relatively weak
